According to patent US20250353835A1, “N-TETRAZOLYL ARYL UREA-BASED DERIVATIVES, PREPARATION METHOD THEREFOR, AND USE THEREOF” (Hangzhou Yirui Pharmaceutical Technology Co., Ltd, priority 2022, published 2025):
Where two headings read alike, the source gives them in different places.

How the values were obtained:
[1] = Liver microsomal metabolism in vitro, rat LM clearance; type: in vitro ADME; conditions: rat liver microsomes in vitro
Procedure: In addition, the LC-MS/MS method was used to determine the substrate metabolites of 5 major subtypes of human liver microsomal CYP450 enzymes (including CYP1A2, CYP2D6, CYP2C8, CYP2C9, and CYP3A4). The substrate method was used to determine the activity of human liver microsomal CYP450 enzyme. The established incubation system was verified using known inhibitors to investigate the inhibitory effect of the compound on CYP450 enzyme. For the enzyme induction test, a primary cultured human hepatocyte incubation system was used. 3-methylcholanthrene, phenobarbital, and rifampicin were used as positive control inducers of CYP1A2, CYP2B6, and CYP3A4, and phenacetin, bupropion, and testosterone were used as the substrate for CYP1A2, CYP2B6, and CYP3A4. The CYP450 enzyme activity was calculated by measuring the generation rate of 3 specific substrate metabolites in the incubation solution. Meanwhile, the total RNA was extracted from the human hepatocytes after incubation, and the real-time fluorescence quantitative PCR method was used to determine the mRNA expression level of CYP1A2, […], and CYP3A4. The enzyme activity and mRNA transcription level were used as endpoints to investigate the inductive effect of the compound on human liver P450 isoenzymes CYP1A2, […], and CYP3A4. The liver microsomal metabolism parameters in vitro are shown in Table 2B3 taking Compound 8 as an example.

[2] = tested on: mouse model of ragweed pollen-induced allergic conjunctivitis; experiment: Mouse model of ragweed pollen-induced allergic conjunctivitis; type: in vivo, Balb/c mice; conditions: for Clinical symptom score: twice a day for 14 days, Day 14 within 30 minutes after final challenge
Procedure: SPF-grade Balb/c mice (half male and half female, 6-8 weeks old) were used as experimental animals. On Day 0 and Day 6, ragweed pollen footpad injection was injected subcutaneously into the footpads of mice for sensitization (65 μl per mouse). On Days 10-14, in the model group, eye drop of ragweed pollen was applied to both eyes of the mice (10 μl per mouse) once a day. The eye drops were applied for 5 consecutive days to trigger local allergic conjunctivitis (Wu B, et al., Frontiers in Immunology, 2021, 12:4754). […] On Day 14, within 30 minutes after the final challenge, the ocular clinical symptoms of the mice were observed under a microscope and scored according to the scoring criteria reported by Magone et al. (MerayoLloves J, et al., J Allergy Clin Immunol (1996) 97(5):1129-40; Magone M T, et al., Clin Immunol Immunopathol (1998) 87(1):75-84), the allergic response of the eyes were observed, including 4 indexes: conjunctival edema, conjunctival congestion, eyelid congestion and edema, and tearing. The scores were recorded as 0-3 points according to the severity (including none, mild, moderate and severe). The left eye of the mouse was taken with the eyelid (keeping the conjunctiva intact), fixed with polyformaldehyde, sectioned in paraffin, Hematoxylin-Eosin stained (HE stained), and toluidine blue stained (for detection of mast cells). Photographs were taken to analyze the inflammatory cell infiltration of the conjunctival tissue, and observe whether the mast cells in the conjunctiva aggregated and whether a phenomenon of degranulation occurred. The expression of allergic indicators IL-4 and IgE in the conjunctival tissue was detected by immunohistochemistry.
The mouse eye, including the eyelids (with intact conjunctiva), was sectioned after deparaffinization, and subjected to antigen retrieval and serum blocking.
Diluted IL-4 or IgE antibodies were added and incubated overnight. After incubation with secondary antibodies, DAB staining was performed, followed by counterstaining with hematoxylin. The slides were then mounted and observed under an […], with photographs taken. Semi-quantitative analysis was conducted using Image-J software. Based on the cumulative optical density and regional area values of each image, the average optical density was calculated to detect the positive expression of IL-4 or IgE.

[3] = Drug concentration in rat retinas after intraocular injection (HPLC); type: in vivo, Wistar rats; conditions: retina
Excerpt: 1.1 Experimental aminals: SPF-grade male Wistar rats weighed 180-220 g.
1.2 Drugs and reagents: Compound 71; sodium chloride injection (Shandong Qidu Pharmaceutical Co., Ltd., Batch No.: 3B151014124); acetonitrile (chromatographically pure, TEDIA, USA); methanol (chromatographically pure, SIGMA-ALDRICH product); triethylamine (analytically pure, Hangzhou Gaojing Fine Chemical Co., Ltd.).
1.3 Experimental grouping and administration: according to the sampling time, 33 male Wistar rats were divided into 11 groups (three rats per group) of: (1) control group; (2) 0 h; (3) 2 h; (4) 6 h; (5) 24 h; (6) 48 h; (7) 72 h; (8) 5 d; (9) 7 d; (10) 10 d; (11) 14 d. Three rats in the control group were injected with solvent (sterile normal saline) intraocularly, and the remaining 30 rats were injected with Compound 71 intraocularly at a concentration of 0.5% by using a 5 μL microinjector, and 5 μL of drug was injected per bulbus oculi.
1.4 Sampling and detection index: The retina of the rat in the control group was taken on Day 14 (14 d), and the retina of the remaining 30 rats was taken at the corresponding time points. The retina were frozen in liquid nitrogen, and then subjected to the subsequent HPLC detection.
1.5.1 Chromatographic conditions: The mobile phase was chromatographic grade acetonitrile-water=25-75 (v/v). The flow rate was 0.5 mL/min. The column temperature was 25° C. The UV detection wavelength was 254 nm. The injection volume was 20 μL.
1.5.2 Sample processing and preparation: the sample of the rat retina was taken out from the ultra-low temperature (−80° C.) refrigerator, accurately weighed and placed in a glass homogenizer, and ethyl acetate as an organic solvent pre-cooled in a 4° C. refrigerator was added at a ratio of 100 mL/g. The homogenizer was placed in an ice bath for homogenization. After homogenization, all the homogenate was poured into a 5 mL stoppered centrifuge tube. The centrifugation was performed at a low temperature of 4° C. for 5 min (5000 r/min). All the organic phase as the upper layer was accurately taken out and placed in a glass tube with conical bottom. The remaining residue of retina was extracted with 2 mL ethyl acetate repeatedly once. After centrifugation, the two organic phases were combined. Then, the centrifuge tube with conical bottom was blowed for dryness in a nitrogen flow in a 45° C. water bath. The residue was redissolved with 0.1 mL of chromatographic methanol, vortex mixed for 1 min, and centrifuged for 5 min at a high speed of 18000 r/min. 20 μL of the supernatant was taken, and analyzed in a high-performance liquid chromatography system.
1.5.3 Sample determination: After intraocular injection of 5 μL of 0.5% Compound 71, the retina was taken at different time points to analyze the drug content of the test compound in the retina.
1.5.4 Experimental results and conclusions: According to the retinal drug concentration-time curve, it is in conformity to the non-absorption two-compartment model. According to the pharmacokinetic non-absorption two-compartment model theory, the pharmacokinetic parameters of the drug were calculated.

[4] = immunohistochemistry, 2% eye drop
[5] = intraocular injection of 5 μL of 0.5% per eye, two-compartment model

| Rat LM clearance [1] | concentration at 14 d ([3]; male, Wistar, rat, other: intraocular injection, 5 μL of 0.5% solution per eye, Day 14 after intraocular injection of 0.5% (5 μL per eye), read-out: retinal concentration) | half-life ([3]; male, Wistar, rat, topical or ocular, 5 μL of 0.5% solution per eye, intraocular injection of 5 μL of 0.5% per eye, two-compartment model, read-out: Distribution half-life (converted)) | half-life ([3]; male, Wistar, rat, topical or ocular, 5 μL of 0.5% solution per eye, intraocular injection of 5 μL of 0.5% per eye, two-compartment model, read-out: Elimination half-life (converted)) | AUC ([3]; male, Wistar, rat, topical or ocular, 5 μL of 0.5% solution per eye, intraocular injection of 5 μL of 0.5% per eye, two-compartment model, read-out: Area under the time curve AUC) | Apparent distribution volume [3, 5] | Total clearance CLT [3, 5] | Compound | inflammatory cell infiltration of conjunctival tissue (HE staining; in words) ([2]; 0.5% eye drop) | mast cell degranulation (toluidine blue staining; in words) ([2]; 0.5% eye drop) | Clinical symptom score ([2]; 0.5% eye drop) | inflammatory cell infiltration of conjunctival tissue (HE staining; in words) ([2]; 2% eye drop) | mast cell degranulation (toluidine blue staining; in words) ([2]; 2% eye drop) | Clinical symptom score ([2]; 2% eye drop) | expression of IgE in ocular tissue (average optical density) ([2]; immunohistochemistry, 0.5% eye drop) | expression of IL-4 in ocular tissue (average optical density) [2, 4] | expression of IgE in ocular tissue (average optical density) [2, 4] |
| --- | --- | --- | --- | --- | --- | --- | --- | --- | --- | --- | --- | --- | --- | --- | --- | --- |
| 9.83 mL/min/kg | – | – | – | – | – | – | CCOc1ccc(-c2c(F)cc(NC(=O)N3CCC(C(C)(C)C)CC3)cc2-c2nn[nH]n2)cn1 [Compound 8, 4-(tert-butyl)-N-(4-(6-ethoxypyrid-3-yl)-3-fluoro-5-(2H-tetrazol-5-yl)phenyl)piperidine-1-carboxamide] | inflammatory cell infiltration was still visible | a few samples showed manifest mast cell degranulation | 3.67 ± 0.36 | an improvement in inflammatory cell infiltration | no mast cell degranulation was observed | 1.75 ± 0.22^♦ | 0.72±0.12 | 0.24±0.06 | 0.54±0.06 |
| – | 1240 nM | 6.97 h | 408 h | 901 µg·h/mL | 0.001676 L | 5.55e-05 L/h | CCOc1ccc(-c2ccc(NC(=O)N[C@H]3CC[C@H](C)CC3)cc2-c2nn[nH]n2)cn1 [Compound 71, 1-(4-(6-ethoxypyrid-3-yl)-3-(2H-tetrazol-5-yl)phenyl)-3-((trans)-4-methylcyclohexyl)urea] | – | – | – | – | – | – | – | – | – |
